{"source": "paper PMC12263422", "about": "“Cryo-EM structure of the human THIK-1 K2P K^+ channel reveals a lower Y gate regulated by lipids and anesthetics” (Nature Structural & Molecular Biology, 2025)", "target": "T1, THIK-1 Y273A/I139A (Homo sapiens, UniProt Q9HB14, I139A/Y273A)", "T1 construct": "expressed in transfected cells; host or cells: Xenopus oocytes (mRNA injection)", "T1 sequence (Q9HB14 1-408 I139A/Y273A)": "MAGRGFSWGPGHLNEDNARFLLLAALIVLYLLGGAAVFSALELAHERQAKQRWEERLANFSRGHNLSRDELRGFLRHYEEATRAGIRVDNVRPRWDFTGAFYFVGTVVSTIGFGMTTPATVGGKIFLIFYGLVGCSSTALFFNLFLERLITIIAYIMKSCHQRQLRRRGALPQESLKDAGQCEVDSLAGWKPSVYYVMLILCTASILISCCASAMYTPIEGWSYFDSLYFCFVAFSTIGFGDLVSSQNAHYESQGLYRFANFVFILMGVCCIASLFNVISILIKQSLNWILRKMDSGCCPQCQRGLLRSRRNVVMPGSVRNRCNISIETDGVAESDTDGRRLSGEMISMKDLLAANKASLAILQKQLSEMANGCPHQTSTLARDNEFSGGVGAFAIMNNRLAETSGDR", "experiment": "Inside-out excised patch recordings, oocytes, THIK-1 Y273A/I139A double mutant", "format": "cell-based", "settings": "for τ of 1 mM TPenA block / τ of 1 mM TPenA release: I139A/Y273A; for Normalized currents: THIK-1 Y273A/I139A", "from_the_text": "Human K2P13.1 THIK-1 (GenBank accession number: NM_022054) and human K2P12.1 THIK-2 (NM_022055.1) were used in this study. For functional expression studies, the respective K^+ channel subtype coding sequences were subcloned into the oocyte expression vector pSGEM or the dual-purpose expression vector pFAW[41] and verified by sequencing. All mutant channels were obtained by site-directed mutagenesis and verified by sequencing. To increase surface expression and macroscopic currents, measurements of THIK-2 channels used a mutated ER retention motif, (R11A R12A R14A R15A R16A; THIK-2*)[20]. Vector DNA was linearized with NheI or MluI, and mRNA was synthesized in vitro using the SP6 or T7 AmpliCap Max High Yield Message Maker Kit (Cellscript, USA) or HiScribe T7 ARCA mRNA Kit (New England Biolabs).\nTwo-electrode voltage–clamp (TEVC) studies were performed in Xenopus oocytes. All animal use conformed to the Guide for the Care and Use of Laboratory Animals (NIH Publication 85–23), and all experiments using Xenopus toads were approved by the local ethics panels. Oocytes were stored at 17 °C in ND96 recording solution composed of (in mM): 96 NaCl, 2 KCl, 1.8 CaCl2, 1 MgCl2, 5 HEPES (pH 7.5 adjusted with NaOH and HCl), supplemented with Na-pyruvate (275 mg L^–1), theophylline (90 mg L^–1) and gentamicin (50 mg L^–1). Oocytes were injected with 1 ng mRNA for WT or mutant channels, and were incubated for 24–48 h at 17 °C. Two-electrode voltage clamp recordings were then performed as previously described[42],[43]. For macroscopic patch–clamp measurements, oocytes were obtained as described above incubated at 17 °C in a solution containing (mM): 54 NaCl, 30 KCl, 2.4 NaHCO3, 0.82 MgSO4 ×7 H2O, 0.41 CaCl2, 0.33 Ca(NO3)2 ×4 H2O and 7.5 TRIS (pH 7.4 adjusted with NaOH and HCl) for 1–4 days before use. Excised patch recordings in inside-out configuration conditions were performed at room temperature. Patch pipettes were made from thick-walled borosilicate glass GB 200TF-8P (Science Products), had resistances of 0.2–0.5 MΩ (tip diameter, 10–25 µm) and filled with a pipette solution (in mM): 120 KCl, 10 HEPES and 3.6 CaCl2 (pH 7.4 adjusted with KOH and HCl). Intracellular bath solutions and compounds were applied to the cytoplasmic side of excised patches for the various K^+ channels through a gravity flow multi-barrel pipette system. The intracellular solution had the following composition (in mM): 120 KCl, 10 HEPES, 2 EGTA and 1 pyrophosphate (pH adjusted with KOH and HCl). Currents were recorded with an EPC10 amplifier (HEKA Electronics) and sampled at 10 kHz or higher, with filtering set to 3 kHz (–3 dB) or higher, as appropriate for sampling rate. For measurements of GPCR activation, whole-cell currents were recorded for THIK-1 in transiently transfected HEK-293 cells. Cells were stimulated by a ramp protocol between −100 and +60 mV (holding potential, −80 mV). The pipette solution was composed of (in mM): 140 KCl, 2 MgCl2, 1 CaCl2, 2.5 EGTA and 10 HEPES (pH 7.3 adjusted with KOH and HCl). The extracellular bath solution had the following composition (in mM): 135 NaCl, 5 KCl, 2 MgCl2, 2 CaCl2, 10 glucose and 10 HEPES pH (pH 7.3 adjusted with NaOH and HCl). Oxotremorine M (Oxo-M) was added to extracellular bath solution to obtain the final concentration. Single-channel currents were recorded with an Axopatch 200B amplifier through a Digidata 1440A digitizer (Molecular Devices). Data were filtered at 2 kHz and recorded at a 200-kHz sampling rate with the program Clampex (Molecular Devices). Pipette solution and bath solution for cell-attached recordings contained (in mM): 140 KCl, 2 MgCl2, 1 CaCl2 and 10 HEPES (pH 7.4 adjusted with KOH and HCl). For inside-out recordings, the bath solution contained (in mM): 140 KCl, 2 MgCl2, 1 CaCl2 and 10 HEPES (pH 7.2 adjusted with KOH and HCl). All experiments were conducted at room temperature. […]", "note": "“And” between values parts separate entries of the source, which are not always exact repeats. Equal entries are not always repeated."}
{"smiles": "CCCCC[N+](CCCCC)(CCCCC)CCCCC", "note": "[TPenA, tetrapentylammonium]", "values": [{"measurement": "τ of 1 mM TPenA block", "setting": "individual recordings", "result": "0.121 s and 0.062 s and 0.131 s and 0.164 s and 0.120 s and 0.094 s and 0.191 s and 0.111 s and 0.116 s and 0.183 s and 0.093 s and 0.084 s and 0.142 s and 0.070 s and 0.095 s and 0.042 s"}, {"measurement": "τ of 1 mM TPenA release", "setting": "individual recordings", "result": "0.960 s and 0.559 s and 1.130 s and 0.565 s and 0.799 s and 0.283 s and 0.914 s and 0.634 s and 0.842 s and 0.928 s and 0.662 s and 0.571 s and 0.449 s and 0.371 s and 1.055 s"}, {"measurement": "τ of 1 mM TPenA block", "setting": "mean", "result": 0.11, "unit": "s"}, {"measurement": "τ of 1 mM TPenA release", "setting": "mean", "result": 0.71, "unit": "s"}, {"measurement": "Normalized currents", "setting": "TPenA 0.1 µM", "result": 1.00}, {"measurement": "Normalized currents", "setting": "TPenA 1 µM", "result": 0.95}, {"measurement": "Normalized currents", "setting": "TPenA 4 µM", "result": 0.90}, {"measurement": "Normalized currents", "setting": "TPenA 15.6 µM", "result": 0.68}, {"measurement": "Normalized currents", "setting": "TPenA 62.5 µM", "result": 0.47}, {"measurement": "Normalized currents", "setting": "TPenA 250 µM", "result": 0.22}, {"measurement": "Normalized currents", "setting": "TPenA 1000 µM", "result": 0.08}, {"measurement": "Normalized currents", "setting": "TPenA 4000 µM", "result": 0.03}]}
